Measurements as given in patent US20060089371A1, “Phenyl or heteroaryl amino alkane derivatives as ip receptor antagonist” (Bayer HealthCare AG, priority 2002, published 2006).

Assays:
IP receptor = molecular target: T1, IP receptor (Homo sapiens, UniProt P43119); experiment: IP receptor binding/cAMP in HEL cells ([3H]-iloprost binding, Assay 1; iloprost-induced cAMP production, Assay 2); settings: compounds of about 40 to 90% purity, read-out: In vitro activity grade (IC50 class)
T1 construct: one million cells in 160 μl aliquot of cell suspension were put in a well of 96 well plate; host or cells: HEL 92.1.7 human erythroleukemia cells (whole cells)
Description: [Measurement of the [^3H]-iloprost Binding to HEL Cells] (Assay 1)
A human erythloleukemia cell line, HEL 92.1.7, was purchased from American Type Culture Correction and maintained in RPMI-1640 medium (Gibco BRL) supplemented with 10% fetal calf serum (FCS), 2 mM glutamine, 4.5 g/L glucose, 10 mM Hepes, 1 mM sodium pyruvate, 100 U/ml penicillin, and 100 μg/ml streptomycin in a humidified 5% CO2 atmosphere at 37° C. Cells were collected with centrifugation and washed with binding assay buffer (BAB: 50 mM Tris-HCl, 5 mM MgCl2 (pH 7.5)). Cells were suspended at the density of 6.25×10^6 cells/ml in BAB, and one million cells in 160 μl aliquot of cell suspension were put in a well of 96 well plate (Falcon). Then, 20 μl of compound solution, 100 μM of iloprost (for non-specific binding), or buffer alone (total binding), diluted with 1% DMSO in BAB was added. Finally, another 20 μl containing [^3H]-iloprost (0.02 μCi, 0.5-1 pmol) in BAB was added and incubated at room temperature for 30 min with a gentle shaking. Cell suspension was then transferred to a well of MultiScreen plate with GF/C glass filters (Millipore) to harvest cells. Cells were washed twice with 200 μl of ice-cold BAB and the plate was kept at 55° C. for 30 min to dry filters. The filter in the well was punched out to a counting tube and 2 ml of Ultima Gold XR (Packard) was added. [^3H]-radio activity in the filter was measured by a liquid scintillation counter (Beckman, USA).
[Iloprost-Induced cAMP Production Assay in HEL Cells] (Assay 2)
HEL cells were collected with centrifugation and washed with cAMP assay buffer (CAB: Hank's balanced salt solution, 17 mM Hepes, 0.1% bovine serum albumin, 1 mM IBMX, 0.4% DMSO, and 1 mM L-ascorbic acid sodium salt (pH 7.4)). Cells were suspended at the density of 2.5×10^5 cells/ml in CAB, and twenty thousand cells in 80 μl aliquot of cell suspension were put in a well of 96 well plate (Falcon). Then, 10 μl of compound solution diluted with 1% DMSO in CAB or buffer alone was added. The plate was incubated at 37° C. for 30 min. Then, another 10 μl containing 100 nM iloprost in CAB or buffer alone was added and further incubated at 37° C. for 30 min. cAMP content in the well was measured by a cAMP ELISA kit (Applied Biosystems, USA).
The data corresponds to the compounds as yielded by solid phase synthesis and thus to levels of purity of about 40 to 90%. For practical reasons, the compounds are grouped in three classes of activity as follows: IC50=A<0.1 μM≦B<1 μM≦C

T1 sequence (P43119 whole entry): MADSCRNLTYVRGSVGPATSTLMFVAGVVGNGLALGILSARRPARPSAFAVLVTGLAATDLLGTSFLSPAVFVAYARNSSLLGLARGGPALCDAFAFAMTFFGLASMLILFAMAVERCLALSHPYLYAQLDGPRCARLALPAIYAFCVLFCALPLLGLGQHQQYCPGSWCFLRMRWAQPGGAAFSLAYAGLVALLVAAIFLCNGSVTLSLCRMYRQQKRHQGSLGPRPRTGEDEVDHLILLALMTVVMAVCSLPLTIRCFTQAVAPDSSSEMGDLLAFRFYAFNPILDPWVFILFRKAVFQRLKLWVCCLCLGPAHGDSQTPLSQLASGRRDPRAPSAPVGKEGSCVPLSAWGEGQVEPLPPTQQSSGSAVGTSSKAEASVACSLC

With `O=C(O)C(Cc1ccccc1)Nc1cc(-c2ccc(-c3ccc4c(c3)OCO4)cc2)ncn1` (centres unmarked) [Example 11-2] the IC50 (IP receptor) was under 100 nM and the melting point was 139 to 142 °C (dec.).

With `O=C(O)C(Cc1ccccc1)Nc1cc(-c2ccc(OCc3ccncc3)cc2)ncn1` (centres unmarked) [Example 2-29] the IC50 (IP receptor) was under 100 nM and the melting point was 110 to 113 °C.

With `O=C(O)C(Cc1cccc(O)c1)Nc1cc(-c2ccc(OCc3ccccc3)cc2)ncn1` (centres unmarked) [Example 2-30] the IC50 (IP receptor) was under 100 nM and the melting point was 169 °C.

In the case of `COc1cccc(COc2ccc(-c3cc(NC(Cc4ccccc4)C(=O)O)ncn3)cc2)c1` (centres unmarked) [Example 2-4], the IC50 (IP receptor) is reported as under 100 nM and the melting point is reported as 90 to 93 °C.

`O=C(O)[C@H](Cc1ccccc1)Nc1cc(-c2ccc(OCC3CC3)cc2)ncn1` [Example 1-49] showed an IC50 (IP receptor) of over 1000 nM and a melting point of 180 to 185 °C.

In the case of `O=C(c1ccc(F)cc1)c1ccc(-c2cc(NC(Cc3ccccc3)C(=O)O)ncn2)cc1` (centres unmarked) [Example 17-4], the IC50 (IP receptor) is reported as under 100 nM and the melting point is reported as 115 to 117 °C.

For `O=C(O)C(Cc1ccccc1)Nc1cc(-c2ccc(-c3cccc4ccccc34)cc2)ncn1` (centres unmarked) [Example 11-7], the IC50 (IP receptor) was 100 to 1000 nM and the melting point was 135 to 138 °C (dec.).

Work on `CC(Cc1cccc(O)c1)(Nc1cc(-c2ccc(OCc3ccccc3)cc2)ncn1)C(=O)O` (centres unmarked) [Example 1-35] yielded an IC50 (IP receptor) of over 1000 nM and a melting point of 265 to 267 °C.

For `O=C(O)C(COCc1ccccc1)Nc1cc(-c2ccc(OCc3ccccc3)cc2)ncn1` (centres unmarked) [Example 1-33], the IC50 (IP receptor) was under 100 nM and the melting point was 132 to 135 °C.

`CCCCOc1ccc(-c2cc(NC(Cc3ccccc3)C(=O)O)ncn2)cc1` (centres unmarked) [Example 2-10] showed an IC50 (IP receptor) of under 100 nM and a melting point of 205 to 208 °C.

For `CSc1ccc(-c2ccc(-c3cc(NC(Cc4ccccc4)C(=O)O)ncn3)cc2)cc1` (centres unmarked) [Example 11-3], the IC50 (IP receptor) was under 100 nM and the melting point was 135 to 137 °C (dec.).

In the case of `O=C(c1ccc(-c2cc(NC(Cc3ccccc3)C(=O)O)ncn2)cc1)C1CCCCC1` (centres unmarked) [Example 17-2], the IC50 (IP receptor) is reported as 100 to 1000 nM and the melting point is reported as 116 to 119 °C.

In the case of `CCCCC(Nc1cc(-c2ccc(OCc3cc(OC)cc(OC)c3)cc2)ncn1)C(=O)O` (centres unmarked) [Example 2-45], the IC50 (IP receptor) is reported as under 100 nM and the melting point is reported as 88 to 93 °C.

Work on `CCC(C)C(Nc1cc(-c2ccc(OCc3ccccc3)cc2)ncn1)C(=O)O` (centres unmarked) [Example 1-11] yielded an IC50 (IP receptor) of 100 to 1000 nM and a melting point of 56 °C.

In the case of `NCCOc1cccc(C[C@H](Nc2cc(-c3ccc(OCc4ccccc4)cc3)ncn2)C(=O)O)c1` [Example 5-1, 3-(2-Aminoethoxy)-N-{6-[4-(benzyloxy)phenyl]pyrimidin-4-yl}phenylalanine], the IC50 (IP receptor) is reported as under 100 nM and the melting point is reported as 153.8 °C.

`CCCCC(Nc1cc(-c2ccc(OCCc3ccccc3)cc2)ncn1)C(=O)O` (centres unmarked) [Example 2-40] gave an IC50 (IP receptor) of under 100 nM and a melting point of 86 to 88 °C.

`O=C(O)C(Cc1ccccn1)Nc1ncnc(-c2ccc(OCc3ccccc3)cc2)c1F` (centres unmarked) [Example 1-45] showed an IC50 (IP receptor) of under 100 nM and a melting point of 177 to 178 °C.

For `O=C(Cc1ccccc1)Nc1ccc(-c2cc(NC(Cc3ccccc3)C(=O)O)ncn2)cc1` (centres unmarked) [Example 14-3], the IC50 (IP receptor) was 100 to 1000 nM and the melting point was 145 to 148 °C (dec.).

In the case of `CC(O)C(Nc1cc(-c2ccc(OCc3ccccc3)cc2)ncn1)C(=O)O` (centres unmarked) [Example 1-27], the IC50 (IP receptor) is reported as 100 to 1000 nM and the melting point is reported as 211 to 214 °C.

Work on `O=C(O)C(Cc1cccnc1)Nc1cc(-c2ccc(OCc3ccccc3)cc2)ncn1` (centres unmarked) [Example 1-48] yielded an IC50 (IP receptor) of under 100 nM and a melting point of 188 to 192 °C.

`O=C(O)C(Cc1ccc([N+](=O)[O-])cc1)Nc1cc(-c2ccc(OCc3ccccc3)cc2)ncn1` (centres unmarked) [Example 1-25] showed an IC50 (IP receptor) of under 100 nM and a melting point of 211 °C.

For `O=C(O)C(Cc1ccccc1)Nc1ncnc(-c2ccc(OCc3ccccc3)cc2)n1` (centres unmarked) [Example 1-30], the IC50 (IP receptor) was under 100 nM and the melting point was 186 to 188 °C.

With `O=C(O)C(Cc1ccccc1)Nc1cc(-c2ccc(OCc3cc(F)cc(F)c3)cc2)ncn1` (centres unmarked) [Example 2-11] the IC50 (IP receptor) was under 100 nM and the melting point was 207 to 210 °C (dec.).

With `O=C(O)C(Cc1ccccc1)Nc1cc(-c2ccc(OCC3CC3)nc2)ncn1` (centres unmarked) [Example 25-3] the IC50 (IP receptor) was under 100 nM and the melting point was 113 to 114 °C.

`CC(C)C(Nc1cc(-c2ccc(OCc3ccccc3)cc2)ncn1)C(=O)O` (centres unmarked) [Example 1-16] gave an IC50 (IP receptor) of 100 to 1000 nM and a melting point of 235 to 237 °C.

For `O=C(O)C(Cc1ccccc1)Nc1cc(-c2ccc(OCc3ccccc3F)cc2)ncn1` (centres unmarked) [Example 2-6], the IC50 (IP receptor) was under 100 nM and the melting point was 220 to 223 °C (dec.).

With `COc1cccc(-c2ccc(-c3cc(NC(Cc4ccccc4)C(=O)O)ncn3)cc2)c1` (centres unmarked) [Example 11-4] the IC50 (IP receptor) was under 100 nM and the melting point was 112 to 114 °C (dec.).

Molecule `COc1cc(COc2ccc(-c3cc(NC(Cc4ccccc4)C(=O)O)ncn3)cc2)cc(OC)c1` (centres unmarked) [Example 2-2] has an IC50 (IP receptor) of under 100 nM and a melting point of 90 to 93 °C.

Molecule `O=C(O)C(Cc1ccccc1)Nc1cc(-c2ccc(OCCCc3ccccc3)cc2)ncn1` (centres unmarked) [Example 2-25] has an IC50 (IP receptor) of under 100 nM and a melting point of 101 to 104 °C.

`O=C(O)[C@@H](Cc1ccccn1)Nc1cc(-c2ccc(OCc3ccccc3)cc2)ncn1` [Example 1-4, N-{6-[4-(benzyloxy)phenyl]pyrimidin-4-yl}-3-pyridin-2-yl-D-alanine] gave an IC50 (IP receptor) of under 100 nM and a melting point of 142 °C.

Molecule `O=C(O)C(Cc1ccccc1)Nc1cc(-c2ccc(Cc3ccc(F)cc3)cc2)ncn1` (centres unmarked) [Example 18-2] has an IC50 (IP receptor) of 100 to 1000 nM and a melting point of 98 to 101 °C.

`O=C(O)C(Cc1ccccc1)Nc1cc(-c2ccc(O)cc2)ncn1` (centres unmarked) [Example 2-5] showed an IC50 (IP receptor) of over 1000 nM and a melting point of 223 to 227 °C.

`CC(Nc1cc(-c2ccc(OCc3ccccc3)cc2)ncn1)C(=O)O` (centres unmarked) [Example 1-18] showed an IC50 (IP receptor) of 100 to 1000 nM and a melting point of 158 °C.

With `O=C(O)C(Cc1ccccn1)Nc1cc(-c2ccc(OCCc3ccccc3)cc2)ncn1` (centres unmarked) [Example 2-38] the IC50 (IP receptor) was under 100 nM and the melting point was 52 to 53 °C.

With `COc1ccc(-c2cc(NC(Cc3ccccc3)C(=O)O)ncn2)cc1` (centres unmarked) [Example 2-13] the IC50 (IP receptor) was 100 to 1000 nM and the melting point was 203 to 206 °C (dec.).

`O=C(O)C(Cc1ccccc1)Nc1cc(-c2ccc(OCC3CCCC3)cc2)ncn1` (centres unmarked) [Example 2-20] gave an IC50 (IP receptor) of under 100 nM and a melting point of 125 to 128 °C.

In the case of `O=C(c1ccc(Cl)cc1)c1ccc(-c2cc(NC(Cc3ccccc3)C(=O)O)ncn2)cc1` (centres unmarked) [Example 17-5], the IC50 (IP receptor) is reported as under 100 nM and the melting point is reported as 123 to 126 °C.

For `O=C(O)C(Cc1ccccc1)Nc1cc(-c2ccc(OCC(F)(F)F)cc2)ncn1` (centres unmarked) [Example 2-31], the IC50 (IP receptor) was under 100 nM and the melting point was 109 to 112 °C.

With `O=C(O)C(Cc1ccccc1)Nc1ncnc(-c2ccc(OCc3ccccc3)cc2)c1[N+](=O)[O-]` (centres unmarked) [Example 1-9] the IC50 (IP receptor) was over 1000 nM and the melting point was under 80 °C.

For `O=C(O)C(Cc1ccccc1)Nc1cc(-c2ccc(OCc3cccnc3)cc2)ncn1` (centres unmarked) [Example 2-21], the IC50 (IP receptor) was under 100 nM and the melting point was 135 to 136 °C (dec.).

`O=C(O)C(Cc1ccc(F)cc1)Nc1cc(-c2ccc(OCc3ccccc3)cc2)ncn1` (centres unmarked) [Example 1-12] showed an IC50 (IP receptor) of under 100 nM and a melting point of 186 °C.

In the case of `c1ccc(COc2ccc(-c3cc(NC(Cc4ccccc4)c4nnn[nH]4)ncn3)cc2)cc1` (centres unmarked) [Example 27-1, 6-[4-(Benzyloxy)phenyl]-N-[2-phenyl-1-(1H-tetrazol-5-yl)ethyl)pyrimidin-4-amine], the IC50 (IP receptor) is reported as under 100 nM and the melting point is reported as 150 °C.

Molecule `O=C(O)C(Cc1ccccc1)Nc1cc(-c2ccc(OCCc3cccnc3)cc2)ncn1` (centres unmarked) [Example 2-23] has an IC50 (IP receptor) of under 100 nM and a melting point of 85 to 88 °C.

With `CCCCC(Nc1cc(-c2ccc(OCc3cccc(F)c3)cc2)ncn1)C(=O)O` (centres unmarked) [Example 2-35] the IC50 (IP receptor) was under 100 nM and the melting point was 181 to 186 °C.

In the case of `O=C(O)[C@H](Cc1ccccc1)Nc1ncnc(-c2ccc(OCc3ccccc3)cc2)c1CO` [Example 23-1, N-[6-[4-(Benzyloxy)phenyl]-5-(hydroxymethyl)pyrimidin-4-yl]phenylalanine], the IC50 (IP receptor) is reported as 100 to 1000 nM and the melting point is reported as 114 to 117 °C.

With `O=C(O)[C@H](Cc1ccccc1)Nc1cc(-c2ccc(/C=C\c3ccccc3)cc2)ncn1` [Example 10-1, N-(6-{4-[(Z)-2-Phenylvinyl]phenyl}pyrimidin-4-yl)phenylalanin] the IC50 (IP receptor) was under 100 nM and the melting point was 217 to 220 °C (dec.).
